Test results: patent US20250066737A1, “METHOD FOR ESTABLISHING LUNG CANCER CELL MODEL HAVING VASCULAR TUBES, PLATFORM FOR LUNG CANCER MEDICINE SCREENING AND METHOD FOR USING THEREOF” (National Cheng Kung University Hospital, priority 2023, published 2025)

Key:
H1299-EGFRmt cell model [1] = experiment: 3D-VM vasculature disruption, H1299-EGFRmt cell model; format: cell-based
Protocol: (§1) The assessment of in vitro vasculogenic mimicry (VM) capabilities of cancer cells was conducted utilizing the Matrigel tube formation assay. Chamber slides (TruLive3D Dishes, Burker) were prepared by applying a 100 μl layer of growth factor-reduced Matrigel (Corning) and subsequently allowing for gel solidification over a 30-minute period at 37° C. Following solidification, a cell suspension prepared in culture media at a concentration of 1.25×10^5 cells per 150 μl was evenly distributed over the gel surface. This preparation was then incubated for an additional 30 minutes at 37° C. within a CO2 incubator. […]
(§2) The quantification of tube or lumen formation of 3D-VM vasculature was conducted utilizing an analytical approach on at least eight distinct areas of interest (AOIs), among which three AOIs were specified as representative sections of images. […] First, the AOI was identified and quantified. Following this, the mean ROI was calculated by aggregating the ROIs for all eight AOIs (area 1+ area 2+ . . . area 8) and dividing this sum by eight, thereby deriving an average area that reflects the typical dimensions of the regions analyzed in each individual lung cancer cell model. […]
(§3) The entire quantification process was facilitated by employing the Angiogenesis Analyzer for ImageJ.

H1299-EGFRmt cell model [2] = experiment: 2D-VM networks inhibition assay via high-content imaging, H1299-EGFRmt; format: cell-based; details: any concentration beyond 31.25 nM
Protocol: (§4) Cells to be tested were plated in 96-well plates (manufactured by Greiner) and allowed to adhere overnight under standard culture conditions. Following attachment, the cells to be tested were exposed to various concentrations of anti-VM compound foslinanib (ABEx BIO-Research Center). The treatment's efficacy, specifically its ability to inhibit VM vasculature, was monitored time-dependent. The assessment of 2D-VM network disruption was conducted using the ImageXpressR Micro Confocal High-Content Imaging System (Molecular Devices LLC). This advanced imaging technology facilitates high-resolution visualization of cell morphology and tubular networks. Analysis of the imaging data was performed using MetaXpress software, allowing for quantitative measurement of 2D-VM network inhibition. This methodological approach provides a robust framework for evaluating the potential of anti-VM compounds.

H1650 cells = experiment: Cell viability (MTT assay), H1650; format: cell-based; details: H1650 lung cancer cell model, various foslinanib concentrations
Protocol: (§5) Cell viability was determined using an MTT assay.

[3] = system: H1650 lung cancer cell model; experiment: 3D-VM vasculature disruption, H1650 lung cancer cell model (real-time LSFM, lumen quantification); format: cell-based
Protocol: The assessment of in vitro vasculogenic mimicry (VM) capabilities of cancer cells was conducted utilizing the Matrigel tube formation assay. Chamber slides (TruLive3D Dishes, Burker) were prepared by applying a 100 μl layer of growth factor-reduced Matrigel (Corning) and subsequently allowing for gel solidification over a 30-minute period at 37° C. Following solidification, a cell suspension prepared in culture media at a concentration of 1.25×10^5 cells per 150 μl was evenly distributed over the gel surface. This preparation was then incubated for an additional 30 minutes at 37° C. within a CO2 incubator. After this initial incubation period, an overlay of 1× Matrigel mixed with culture medium was applied directly to the cells, so as to obtain a pre-cell model (10), and followed by further incubation at 37° C. for 5 to 24 hours so that a lung cancer cell model (100) was obtained for subsequent 3D-VM observation.
The quantification of tube or lumen formation of 3D-VM vasculature was conducted utilizing an analytical approach on at least eight distinct areas of interest (AOIs), among which three AOIs were specified as representative sections of images. The region of interest (ROI) indicates a delineated patent tube or hollow lumen within each tested cell. First, the AOI was identified and quantified. Following this, the mean ROI was calculated by aggregating the ROIs for all eight AOIs (area 1+ area 2+ . . . area 8) and dividing this sum by eight, thereby deriving an average area that reflects the typical dimensions of the regions analyzed in each individual lung cancer cell model. Finally, the standard average was ascertained by dividing the mean ROI by the mean total tube average. This ratio provides a standardized metric, enabling the effective comparison of anti-3D-VM vasculature efficiency across varying experimental setups or among different cell lines; the formula is as follows: […]
as §3

[4] = system: HCC827 lung cancer cell model; experiment: 3D-VM vasculature disruption, HCC827 lung cancer cell model (real-time LSFM, lumen quantification); format: cell-based; details: HCC827, 500 nM, 24-hour incubation
Protocol: as §1, §2, §3

H1299-EGFRwt cell model [5] = experiment: 2D-VM networks inhibition assay via high-content imaging, H1299-EGFRwt; format: cell-based; details: high concentration (beyond 31.25 nM)
Protocol: as §4

H1299-EGFRwt cell model [6] = experiment: 3D-VM vasculature disruption, H1299-EGFRwt cell model; format: cell-based; details: foslinanib 62.5 nM
Protocol: as §1, with “Following solidification, a cell suspension prepared in culture media at a concentration of 1.25×10^5 cells per 150 μl was evenly distributed over the gel surface.” left out
as §2, §3

[7] = system: various tumor xenograft models; details: cited from earlier work
LAMC2 = experiment: Western blot, LAMC2 in H1299, H1299-EGFRwt and H1299-EGFRmt cell models; format: cell-based; details: across the examined cell lines
Protocol: (§6) Cells were seeded at a density of 2×10^6 cells in a 6 cm culture dish for protein sample preparation. […] After centrifugation, the cell lysate samples were boiled with 6X sample buffer for 10 minutes. The cell lysate protein samples were separated by SDS-PAGE and transferred to polyvinylidene difluoride (PVDF) membranes (Millipore). The membranes were then blocked with 5% skim milk (HIMEDIA) dissolved in Tris-buffered saline Tween (TBST) buffer for 1 hour, followed by three 10-minute washes with TBST. […] Subsequently, the membranes were incubated with the appropriate secondary antibodies for 1 hour at room temperature. Protein expressions were visualized using Western Lightning Plus ECL (PerkinElmer), detected by the iBright FL1000 imaging system, and analyzed using ImageJ software.

H1299-EGFRmt cell model [8] = experiment: Cell viability, H1299-EGFRmt cell model; format: cell-based
Protocol: as §5

H1299 cell model [9] = experiment: 2D-VM networks inhibition assay via high-content imaging, H1299; format: cell-based; details: H1299, compared with H1299-EGFRmt cell model
Protocol: as §4

H1299 cell model [10] = experiment: Cell viability, H1299 cell model; format: cell-based; details: H1299, high concentration (beyond 250 nM)
Protocol: as §5

[11] = Cell viability (MTT assay), HCC827; format: cell-based; details: human, HCC827 cells; HCC827, 62.5 nM
Protocol: as §5

[12] = system: H1299-EGFRwt and H1299-EGFRmt cell models; experiment: 3D-VM vasculature under single use of osimertinib (cell model not given); format: cell-based
Protocol: as §1, with “Following solidification, a cell suspension prepared in culture media at a concentration of 1.25×10^5 cells per 150 μl was evenly distributed over the gel surface.” left out
as §2, §3

H1299-EGFRwt cell model [13] = details: osimertinib
Protocol: Cell viability was determined using an MTT assay. Cells were plated at a density of 4×10^3 cells/well within 96-well plates. These cells were then exposed to various concentrations of anti-vasculogenic mimicry (anti-VM) compounds across different time points: 0, 24, 48, and 72 hours. Following the treatment period, the MTT reagent (sourced from Sigma) was added to each well, and the cells were incubated at 37° C. for 2 hours. Subsequently, the plates were centrifuged at 1500 rpm for 10 minutes to facilitate the removal of the supernatant. The resultant formazan crystals were dissolved using dimethyl sulfoxide (DMSO), and the absorbance of the solution, indicative of cell viability, was measured at a wavelength of 492 nm using an ELISA plate reader.

phosphorylated EGFR = details: Western blot, H1299, H1299-EGFRwt, H1299-EGFRmt cell models
Protocol: as §6

COc1ccc2[nH]c(-c3cccc(F)c3)cc(=O)c2c1OP(=O)(O)O [foslinanib]
disruption of 3D-VM vasculature (quantitative analysis) (H1299-EGFRmt cell model [1]): significant
2D total network area (H1299-EGFRmt cell model [2]): decreasing trend
2D total network length (H1299-EGFRmt cell model [2]): decreasing trend
cell toxicity against H1650 cells (H1650 cells): no significant cell toxicity
disruption of VM lumens ([3]; H1650, 62.5 nM): disruption of VM lumens
inhibition of 3D-VM vasculature ([3]; H1650, 250 nM and 500 nM): significant inhibition
lumen area ([3]; H1650, 250 nM and 500 nM): significantly reduced
lumen area [4]: significant reduction
inhibitory effect on the formation of a 2D-VM network (H1299-EGFRwt cell model [5]): rather insignificant
effect on 3D-VM vasculature (H1299-EGFRwt cell model [6]): disruptive effect
anti-tumor efficacy [7]: robust anti-tumor efficacy
LAMC2 protein levels (LAMC2): significant decrease
cell viability (H1299-EGFRmt cell model [8]; H1299-EGFRmt, 31.25 nM (range 7.8125 nM to 500 nM)): significant decrease
2D total network area (H1299 cell model [9]): less effective inhibition
2D total network length (H1299 cell model [9]): less effective inhibition
cell viability (H1299 cell model [10]): suppressed
viability at 0.0625 µM [11]: 70%

C=CC(=O)Nc1cc(Nc2nccc(-c3cn(C)c4ccccc34)n2)c(OC)cc1N(C)CCN(C)C [osimertinib]
3D-VM vasculature (quantitative analysis) ([12]; after osimertinib treatment): significantly disrupted
formation of 3D-VM vasculature (3D imaging) ([12]; osimertinib): did not impact
cytotoxic effects (H1299-EGFRwt cell model [13]): cytotoxic effects
levels of phosphorylated EGFR (phosphorylated EGFR): markedly reduced
cytotoxic effects (H1299-EGFRmt cell model [8]; H1299mt cell model, osimertinib): cytotoxic effects
